Data as given in ChEMBL document CHEMBL5316297, “Mechanistic Insight of Synthesized 1,4-Dihydropyridines as an Antidiabetic Sword against Reactive Oxygen Species” (J Med Chem, 2023).
Activity calls are given as the source filed them. The calls are words filed in the database; no cut-off is given here.

How the values were obtained:
Mus musculus [1] = experiment: Antioxidant activity against high fat diet-STZ-induced diabetic Swiss albino mouse model assessed as serum catalase level at 0.2 mmol/Kg/day, po administered for 14 days (reference value: 378.22+/- 14.45 U/ml); type: functional; conditions: time 14 day
[2] = Cytotoxicity against HEK293 cells assessed as cell growth inhibition at 10 uM relative to control; type: toxicity, cell-based; conditions: human, read-out: GI
INS1 [3] = experiment: Induction of apoptosis in rat INS1 cells assessed as late apoptotic cells at 1 uM incubated for 36 hrs by Annexin V-FITC/ propidium iodide staining based flow cytometry analysis (reference value: 0.19%); type: functional
[4] = target: T1, Sodium/glucose cotransporter 2 (Homo sapiens) (UniProt P31639); experiment: Inhibition of human SGLT2 by liquid scintillation counter analysis relative to canagliflozin; conditions: concentration not given here
T1 sequence (whole entry): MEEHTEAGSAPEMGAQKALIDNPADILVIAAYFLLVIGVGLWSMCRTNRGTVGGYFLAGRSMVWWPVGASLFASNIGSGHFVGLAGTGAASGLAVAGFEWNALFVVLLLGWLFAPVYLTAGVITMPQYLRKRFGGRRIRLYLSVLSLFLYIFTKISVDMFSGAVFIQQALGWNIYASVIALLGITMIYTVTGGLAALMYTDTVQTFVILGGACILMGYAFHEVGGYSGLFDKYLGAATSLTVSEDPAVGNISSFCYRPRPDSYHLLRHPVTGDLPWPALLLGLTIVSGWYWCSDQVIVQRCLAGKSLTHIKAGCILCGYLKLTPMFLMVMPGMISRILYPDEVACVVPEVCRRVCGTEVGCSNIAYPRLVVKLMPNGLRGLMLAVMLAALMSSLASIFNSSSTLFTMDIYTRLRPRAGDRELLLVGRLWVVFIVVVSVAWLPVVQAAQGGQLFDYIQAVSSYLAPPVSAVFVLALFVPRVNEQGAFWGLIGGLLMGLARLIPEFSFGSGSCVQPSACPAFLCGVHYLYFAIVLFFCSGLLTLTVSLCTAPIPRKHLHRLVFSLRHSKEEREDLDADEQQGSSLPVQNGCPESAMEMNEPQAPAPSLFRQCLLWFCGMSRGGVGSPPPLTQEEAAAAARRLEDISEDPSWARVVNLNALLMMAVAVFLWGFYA

[5] = Cmax in Swiss albino mouse plasma at 0.2 mmol/Kg, po measured after 24 hrs by HPLC analysis; type: ADME, organism-based; parameters: time 24 hrs, dose 0.2 mmol/Kg, route po
[6] = Tmax in Swiss albino mouse plasma at 0.2 mmol/Kg, po measured after 24 hrs by HPLC analysis; type: ADME, organism-based
[7] = Cytotoxicity against human THLE-2 cells assessed as cell growth inhibition; type: toxicity, cell-based
Alpha amylase = target: T2, Alpha amylase (Homo sapiens, UniProt P0DUB6); experiment: Inhibition of alpha amylase (unknown origin) measured after 20 to 25 mins
T2 sequence (P0DUB6 whole entry): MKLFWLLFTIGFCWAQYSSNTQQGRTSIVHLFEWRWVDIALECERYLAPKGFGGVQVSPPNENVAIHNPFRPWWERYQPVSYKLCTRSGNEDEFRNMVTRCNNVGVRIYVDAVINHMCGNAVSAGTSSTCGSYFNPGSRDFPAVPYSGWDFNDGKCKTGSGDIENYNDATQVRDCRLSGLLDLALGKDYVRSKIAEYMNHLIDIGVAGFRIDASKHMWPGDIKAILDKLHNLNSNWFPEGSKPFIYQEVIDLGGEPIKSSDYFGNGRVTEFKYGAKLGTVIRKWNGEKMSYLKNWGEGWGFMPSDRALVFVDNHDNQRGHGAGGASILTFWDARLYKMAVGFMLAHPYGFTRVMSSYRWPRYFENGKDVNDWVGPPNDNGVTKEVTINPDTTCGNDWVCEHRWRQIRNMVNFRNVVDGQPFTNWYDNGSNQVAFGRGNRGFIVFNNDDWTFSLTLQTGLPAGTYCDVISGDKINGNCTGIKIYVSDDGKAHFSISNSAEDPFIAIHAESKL

[8] = Cytotoxicity against human HCN-1A cells assessed as cell growth inhibition; type: toxicity, cell-based
Alpha glucosidase = Alpha glucosidase (Homo sapiens, UniProt O43451+P10253+P14410+Q2M2H8); experiment: Inhibition of alpha glucosidase (unknown origin) measured after 60 mins; type: protein assay
INS1 [9] = experiment: Induction of rat INS1 cells regeneration incubated for 24 hrs by CCK8 assay; type: functional, cell-based
[10] = target: voltage dependent L-type calcium channel (Rattus norvegicus, UniProt P22002+P27732+Q02485); experiment: Inhibition of voltage dependent L-type calcium channel in rat A7R5 cells
[11] = Cytotoxicity against human ECT1/E6E7 cells assessed as cell growth inhibition; type: toxicity, cell-based
[12] = Cytotoxicity against HEK293 cells assessed as cell growth inhibition; type: toxicity, cell-based; conditions: human
[13] = Cytotoxicity against human WPE1-NA22 cells assessed as cell growth inhibition at 10 uM relative to control; type: toxicity, cell-based; conditions: read-out: GI
[14] = Half life in Swiss albino mouse plasma at 0.2 mmol/Kg, po measured after 24 hrs by HPLC analysis; type: ADME, organism-based
[15] = Acute toxicity in Swiss albino mouse assessed as toxic symptoms up to 2000 mg/kg, po administered for 14 days; type: organism-based; conditions: in vivo, 336 h, time 14 day
Mus musculus [16] = experiment: Antidiabetic activity against high fat diet-STZ-induced diabetic Swiss albino mouse model assessed as increase in appearance of insulin immunopositive areas in pancreatic sections at 0.2 mmol/kg/day, po administered for 14 days by […] based analysis; type: functional, organism-based; conditions: time 14.0 day
[17] = Cytotoxicity against human BJ cells assessed as cell growth inhibition at 10 uM relative to control; type: toxicity, cell-based; conditions: read-out: GI
[18] = target: T3, Sodium/glucose cotransporter 2 (Homo sapiens, UniProt P31639); experiment: Inhibition of human SGLT2 by liquid scintillation counter analysis
T3 sequence (P31639 whole entry): T1 sequence (whole entry)

Dipeptidyl peptidase 4 = Dipeptidyl peptidase 4 (Homo sapiens, UniProt P27487); experiment: Inhibition of DPP-4 (unknown origin) incubated for 30 mins in presence of substrate by fluorescence based analysis
Sequence of Dipeptidyl peptidase 4 (P27487 whole entry): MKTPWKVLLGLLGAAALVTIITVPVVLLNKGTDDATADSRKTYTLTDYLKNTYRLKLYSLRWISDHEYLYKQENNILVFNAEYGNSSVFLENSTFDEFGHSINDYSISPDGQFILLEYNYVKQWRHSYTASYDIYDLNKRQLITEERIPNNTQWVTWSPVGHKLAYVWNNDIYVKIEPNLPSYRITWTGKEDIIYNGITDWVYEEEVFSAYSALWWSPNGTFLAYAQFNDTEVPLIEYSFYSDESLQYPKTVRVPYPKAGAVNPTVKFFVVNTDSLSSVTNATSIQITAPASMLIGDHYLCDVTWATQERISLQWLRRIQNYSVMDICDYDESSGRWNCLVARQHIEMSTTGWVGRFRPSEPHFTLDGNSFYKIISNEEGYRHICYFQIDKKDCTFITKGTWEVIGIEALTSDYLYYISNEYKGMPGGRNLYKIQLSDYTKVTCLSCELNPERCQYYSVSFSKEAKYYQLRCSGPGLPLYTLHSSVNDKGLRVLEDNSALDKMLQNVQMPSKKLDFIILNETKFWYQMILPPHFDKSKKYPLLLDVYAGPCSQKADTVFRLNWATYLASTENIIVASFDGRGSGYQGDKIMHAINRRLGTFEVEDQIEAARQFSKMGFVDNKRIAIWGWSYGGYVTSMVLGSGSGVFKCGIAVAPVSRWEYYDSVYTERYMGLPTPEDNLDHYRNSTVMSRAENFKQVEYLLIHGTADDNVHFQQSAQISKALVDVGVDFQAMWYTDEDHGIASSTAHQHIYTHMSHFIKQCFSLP

Mus musculus [19] = experiment: Antioxidant activity against high fat diet-STZ-induced diabetic Swiss albino mouse model assessed as serum MDA level at 0.2 mmol/Kg/day, po administered for 14 days (reference value: 8.70+/- 0.09 nmol/ml); type: functional; conditions: time 14 day
Mus musculus [20] = experiment: Antidiabetic activity against high fat diet-STZ-induced diabetic Swiss albino mouse model assessed as reduction in blood glucose level at 0.2 mmol/Kg/day, po administered for 14 days relative to glimepiride; type: functional; parameters: scale not given: the % may be the effect or the level left; conditions: time 14 day
[21] = Cytotoxicity against human MCF-10F cells assessed as cell growth inhibition at 10 uM relative to control; type: toxicity, cell-based; conditions: read-out: GI
[22] = Acute toxicity in Swiss albino mouse assessed as effect on mortality up to 2000 mg/kg, po administered for 14 days; type: organism-based; conditions: in vivo, 336 h, time 14 day
INS1 [23] = experiment: Induction of apoptosis in rat INS1 cells assessed as total apoptotic cells at 1 uM incubated for 36 hrs by Annexin V-FITC/ propidium iodide staining based flow cytometry analysis (reference value: 0.53%); type: functional
INS1 [24] = experiment: Induction of apoptosis in rat INS1 cells assessed as early apoptotic cells at 1 uM incubated for 36 hrs by Annexin V-FITC/ propidium iodide staining based flow cytometry analysis (reference value: 0.34%); type: functional
[25] = AUC in Swiss albino mouse plasma at 0.2 mmol/Kg, po measured after 24 hrs by HPLC analysis; type: ADME, organism-based; parameters: dose 0.2 mmol/Kg, time 24 hrs, route po; conditions: in vivo

SMILES: CCOC(=O)C1=C(C)NC(C)=C(C(=O)OCC)C1c1cccc2c1OCO2
- Activity (Mus musculus [1]): 271.11 U/ml
- inhibition at 10 µM [2]: 41.3%
- Activity (INS1 [3]): 0.15%
- inhibition [4]: < 1%
- Cmax [5]: 10.1 µM
- Tmax [6]: 0.8 h
- GI50 [7]: 67.8 µM
- IC50 (Alpha amylase): 17.32 µM
- GI50 [8]: 28.7 µM
- IC50 (Alpha glucosidase): 4.48 µM
- Activity (INS1 [9]): Dose-Dependent Effect
- IC50 [10]: 12.6 µM
- GI50 [11]: 3.74 µM
- GI50 [12]: 19.7 µM
- inhibition at 10 µM [13]: 26.4%
- half-life [14]: 1.9 h
- Activity [15]: Non-Toxic
- Activity (Mus musculus [16]): Active
- inhibition at 10 µM [17]: 34.5%
- IC50 [18]: 411 µM
- IC50 (Dipeptidyl peptidase 4): 280 µM
- Activity (Mus musculus [19]): 8.61 nmol/mL
- Activity (Mus musculus [20]): 218%
- inhibition at 10 µM [21]: 28.7%
- Activity [22]: Non-Toxic
- Activity (INS1 [23]): 0.42%
- Activity (INS1 [24]): 0.27%
- AUC [25]: 36.7 ng·h/mL
